This is an account of results in US7135466B2 (Kirin Beer Kabushiki Kaisha, priority 1999, dated 2006).

The target in test [1] is T1, PDGF-Ra (Homo sapiens, UniProt P16234).
T1 construct: host or cells: G-292 human osteosarcoma cells
Nature of the test: Inhibitory activity against PDGF-Ra phosphorylation by PDGF-AA stimulation using G292. The class given is cell-based. To be noted: Pharmacological Test Example 1; > means inhibition at indicated concentration not more than 50%, < and << not less than 50%; read-out: PDGF (E) IC50. As for the experimental part:
Measurement of Inhibitory Activity Against PDGF-Ra Phosphorylation by PDGF-AA Stimulation Using G292
G-292 human osteosarcoma cells (Dainippon Pharmaceutical Co. Ltd.) were cultured in a DMEM medium (Dainippon Pharmaceutical Co. Ltd.) containing 10% FBS within an incubator containing 5% carbon dioxide until 80% confluent, and the cells were planted at 3×10^4 cells per well in 96-well flat-bottom plates in the same medium containing 0.1% FBS. After cultivation at 37° C. overnight, a solution of a test compound in dimethyl sulfoxide was added to each well, and a reaction was allowed to proceed at 37° C. for one hr.
After the reaction of the test compound, PDGF-AA (Upstate) was added to 50 ng/ml, and the cells were stimulated at 37° C. for 5 min. Thereafter, the cells were solubilized and shaken at room temperature for 20 min.
This solubilized cell solution was transferred to a 96-well plate coated with aniti-phosphotyrosine antibody PY-20, and a reaction was allowed to proceed at 4° C. overnight. Anti-PDGF-Ra (c-20) (Santa Cruz) was added as a primary antibody, and a reaction was allowed to proceed for one hr. GAR (Anti-rabbit Ig, horseradish peroxidase, Amersham) was then added as a secondary antibody, and a reaction was allowed to proceed for one hr. Color development was carried out using a color development kit for peroxidase (Sumitomo Bakelite Co., Ltd.), and the absorbance was measured at 450 nm.

Test [2] concerns the target T2, c-kit (Homo sapiens, UniProt P10721).
T2 construct: MO7e (human megakaryocytic leukemia cell line) which had been arrested for 20 hr; endogenous in cells; host or cells: MO7e human megakaryocytic leukemia cell line
The experiment in a line: Inhibitory activity against c-kit autophosphorylation (MO7e cells, h-SCF). Conditions: for inhibition at 1 µM: Mo7e; for IC50: MO7e cells, h-SCF stimulation, read-out: c-kit IC50. The class given is cell-based. The method, boiled down: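 Growth-arrested (20 hr) MO7e; cpd in DMSO, 1 hr; h-SCF 50 ng/ml, 5 min; lyse. ELISA: anti-pTyr (PY-20) capture, anti-c-kit 1° Ab, HRP anti-rabbit 2° Ab, A450.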

The mark [3] stands for this setting: figure in parentheses in −( ), at 1000 nM.

A value given as a limit tells only on which side of the number the result lay.

T2 sequence (P10721 26-976): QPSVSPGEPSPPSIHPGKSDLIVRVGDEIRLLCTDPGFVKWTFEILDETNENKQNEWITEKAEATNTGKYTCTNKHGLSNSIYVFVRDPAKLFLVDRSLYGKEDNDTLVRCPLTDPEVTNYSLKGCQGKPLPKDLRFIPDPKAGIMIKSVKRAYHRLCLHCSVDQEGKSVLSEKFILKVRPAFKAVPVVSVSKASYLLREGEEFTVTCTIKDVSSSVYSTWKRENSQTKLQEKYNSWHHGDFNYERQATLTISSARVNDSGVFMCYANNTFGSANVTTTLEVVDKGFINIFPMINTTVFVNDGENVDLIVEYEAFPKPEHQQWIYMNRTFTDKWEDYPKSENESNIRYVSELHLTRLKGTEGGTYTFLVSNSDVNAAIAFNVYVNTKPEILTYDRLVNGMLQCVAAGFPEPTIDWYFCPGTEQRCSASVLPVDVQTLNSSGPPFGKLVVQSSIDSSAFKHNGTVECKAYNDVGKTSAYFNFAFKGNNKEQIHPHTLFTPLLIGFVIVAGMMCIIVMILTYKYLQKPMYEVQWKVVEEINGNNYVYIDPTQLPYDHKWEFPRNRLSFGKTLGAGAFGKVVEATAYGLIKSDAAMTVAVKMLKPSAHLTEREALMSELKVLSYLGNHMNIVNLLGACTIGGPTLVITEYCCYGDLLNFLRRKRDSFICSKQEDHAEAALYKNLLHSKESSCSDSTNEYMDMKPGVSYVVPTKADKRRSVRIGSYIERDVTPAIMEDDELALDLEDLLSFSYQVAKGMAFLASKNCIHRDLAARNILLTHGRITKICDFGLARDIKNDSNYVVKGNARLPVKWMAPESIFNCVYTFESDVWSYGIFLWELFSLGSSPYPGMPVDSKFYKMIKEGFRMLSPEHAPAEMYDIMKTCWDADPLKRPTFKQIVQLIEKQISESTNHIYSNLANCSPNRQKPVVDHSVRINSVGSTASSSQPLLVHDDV
T1 sequence (P16234 24-1089): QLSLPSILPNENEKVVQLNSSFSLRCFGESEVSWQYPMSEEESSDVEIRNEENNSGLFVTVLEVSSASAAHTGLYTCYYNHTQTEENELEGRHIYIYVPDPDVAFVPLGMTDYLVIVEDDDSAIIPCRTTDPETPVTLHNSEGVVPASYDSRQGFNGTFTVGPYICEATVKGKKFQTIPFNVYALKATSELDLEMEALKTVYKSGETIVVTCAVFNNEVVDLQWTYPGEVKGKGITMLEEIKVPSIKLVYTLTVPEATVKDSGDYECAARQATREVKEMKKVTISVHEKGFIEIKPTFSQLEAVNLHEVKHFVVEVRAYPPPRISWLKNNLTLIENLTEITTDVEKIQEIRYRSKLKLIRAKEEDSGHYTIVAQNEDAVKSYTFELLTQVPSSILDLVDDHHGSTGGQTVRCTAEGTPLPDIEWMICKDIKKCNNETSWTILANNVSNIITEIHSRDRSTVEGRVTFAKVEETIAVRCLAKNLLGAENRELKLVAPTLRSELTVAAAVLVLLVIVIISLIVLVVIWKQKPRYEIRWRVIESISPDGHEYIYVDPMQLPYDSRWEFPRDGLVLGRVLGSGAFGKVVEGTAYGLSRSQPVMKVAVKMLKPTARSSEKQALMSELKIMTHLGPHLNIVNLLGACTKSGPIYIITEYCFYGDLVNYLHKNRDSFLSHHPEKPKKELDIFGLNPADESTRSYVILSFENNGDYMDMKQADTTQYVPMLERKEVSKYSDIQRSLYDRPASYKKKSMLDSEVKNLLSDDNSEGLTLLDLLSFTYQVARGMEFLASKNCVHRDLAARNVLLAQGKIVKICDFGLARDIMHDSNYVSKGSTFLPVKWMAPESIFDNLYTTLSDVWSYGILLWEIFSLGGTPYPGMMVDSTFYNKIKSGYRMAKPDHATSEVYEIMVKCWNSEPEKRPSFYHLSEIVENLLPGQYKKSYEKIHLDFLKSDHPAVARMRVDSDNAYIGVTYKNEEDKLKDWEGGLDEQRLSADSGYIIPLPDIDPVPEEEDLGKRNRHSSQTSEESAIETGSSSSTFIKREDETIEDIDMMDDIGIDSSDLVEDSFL

The term IC50 denotes the point on the concentration scale where inhibition reaches its midpoint. Take “1-[3-(Trifluoromethoxy)phenyl]ethyl N-{4-[(6,7-dimethoxy-4-quinolyl)oxy]-2,3-dimethylphenyl}carbamate [Example 181]”: the IC50 in test [1] is more than 100 nM. For the molecule “4-(Dimethylamino)butyl N-{4-[(6,7-dimethoxy-4-quinolyl)oxy]phenyl}carbamate [Example 192]”, in test [1], the IC50 amounted to 56 nM. Regarding `COc1cc2ncnc(Oc3ccc(NC(=O)OCCCSc4ccc(C(C)(C)C)cc4)cc3)c2cc1OC` [Example 75, 3-{[4-(Tert-butyl)phenyl]sulfanyl}propyl N-{4-[(6,7-dimethoxy-4-quinazolinyl)oxy]phenyl}carbamate], the IC50 in test [1] was found to be 25 nM. With `COc1cc2ncnc(Oc3ccc(NC(=O)OC(C)c4ccc(F)cc4)c(Cl)c3)c2cc1OC` (stereo not drawn) [Example 106, 1-(4-Fluorophenyl)ethyl N-{2-chloro-4-[(6,7-dimethoxy-4-quinazolinyl)oxy]phenyl}carbamate], the IC50 in test [1] turned out to be 12 nM.

Take `COc1cc2ncnc(Oc3ccc(NC(=O)OC(C)c4ccccc4Br)c(Cl)c3)c2cc1OC` (stereo not drawn) [Example 116, 1-(2-Bromophenyl)ethyl N-{2-chloro-4-[(6,7-dimethoxy-4-quinazolinyl)oxy]phenyl}carbamate]: in test [1], the IC50 came out at 31 nM.

In the case of `COc1cc2nccc(Oc3cc(C)c(NC(=O)Sc4ccc(Cl)cc4C)cc3C)c2cc1OC` [Example 178, 4-Chloro-2-methylphenyl{4-[(6,7-dimethoxy-4-quinolyl)oxy]-2,5-dimethylanilino}methanethioate], the IC50 in test [1] is more than 100 nM. Same read-out and setting: next, `COc1cc2ncnc(Oc3ccc(NC(=O)Sc4ccc(Cl)cc4C)cc3)c2cc1OC` [Example 179, 4-Chloro-2-methylphenyl{4-[(6,7-dimethoxy-4-quinazolinyl)oxy]anilino}methanethioate]: 70 nM.

As for `COc1cc2nccc(Oc3ccc(NC(=O)OC(C)c4cccc(OC(F)(F)F)c4)cc3)c2cc1OC` (stereo not drawn) [Example 180, 1-[3-(Trifluoromethoxy)phenyl]ethyl N-{4-[(6,7-dimethoxy-4-quinolyl)oxy]phenol}carbamate], in test [1], the half-maximal inhibitory concentration (IC50) came out at 63 nM.

Regarding `COc1cc2nccc(Oc3cc(C)c(NC(=O)OC(C)c4cccc(OC(F)(F)F)c4)cc3C)c2cc1OC` (stereo not drawn) [Example 182, 1-[3-(Trifluoromethoxy)phenyl]ethyl N-{4-[(6,7-dimethoxy-4-quinolyl)oxy]-2,5-dimethylphenyl}carbamate], in test [1], the IC50 was more than 100 nM.

As for `CCCC(OC(=O)Nc1ccc(Oc2ccnc3cc(OC)c(OC)cc23)c(C)c1C)c1ccccc1` (stereo not drawn) [Example 185, 1-Phenylbutyl N-{4-[(6,7-dimethoxy-4-quinolyl)oxy]-2,3-dimethylphenyl}carbamate], the IC50 in test [1] was determined as 46 nM. Still for that read-out and setting: in the case of `CCCC(OC(=O)Nc1cc(C)c(Oc2ccnc3cc(OC)c(OC)cc23)cc1C)c1ccccc1` (stereo not drawn) [Example 186, 1-Phenylbutyl N-{4-[(6,7-dimethoxy-4-quinolyl)oxy]-2,5-dimethylphenyl}carbamate] it was 63 nM; in that of `COc1cc2nccc(Oc3ccc(NC(=O)OCCN(C)C)c(C)c3C)c2cc1OC` [Example 189, 2-(Dimethylamino)ethyl N-{4-[(6,7-dimethoxy-4-quinolyl)oxy]-2,3-dimethylphenyl}carbamate], 57 nM; in that of `COc1cc2nccc(Oc3cc(C)c(NC(=O)OCCN(C)C)cc3C)c2cc1OC` [Example 190, 2-(Dimethylamino)ethyl N-{4-[(6,7-dimethoxy-4-quinolyl)oxy]-2,5-dimethylphenyl}carbamate], more than 100 nM.

In the case of `COc1cc2nccc(Oc3ccc(NC(=O)OCCCCN(C)C)c(C)c3C)c2cc1OC` [Example 193, 4-(Dimethylamino)butyl N-{4-[(6,7-dimethoxy-4-quinolyl)oxy]-2,3-dimethylphenyl}carbamate], the IC50 in test [1] was found to be 57 nM. Take `COc1cc2nccc(Oc3ccc(NC(=O)OC(c4ccccc4)C(C)C)cc3)c2cc1OC` (stereo not drawn) [Example 195, 2-Methyl-1-phenylpropyl N-{4-[(6,7-dimethoxy-4-quinolyl)oxy]phenyl}carbamate]: the IC50 in test [1] was 66 nM. The same measure, in the same setting: in the case of `COc1cc2nccc(Oc3ccc(NC(=O)OC(c4ccccc4)C(C)C)c(C)c3C)c2cc1OC` (stereo not drawn) [Example 196, 2-Methyl-1-phenylpropyl N-{4-[(6,7-dimethoxy-4-quinolyl)oxy]-2,3-dimethylphenyl}carbamate] it was 49 nM; in that of `COc1cc2nccc(Oc3cc(C)c(NC(=O)OC(c4ccccc4)C(C)C)cc3C)c2cc1OC` (stereo not drawn) [Example 197, 2-Methyl-1-phenylpropyl N-{4-[(6,7-dimethoxy-4-quinolyl)oxy]-2,5-dimethylphenyl}carbamate], 93 nM. On the same count and under the same terms, next, `COc1cc2ncnc(Oc3ccc(NC(=O)OC(c4ccccc4)C(C)C)cc3)c2cc1OC` (stereo not drawn) [Example 198, 2-Methyl-1-phenylpropyl N-{4-[(6,7-dimethoxy-4-quinazolinyl)oxy]phenyl}carbamate]: 21 nM; `COc1cc2nccc(Oc3cc(C)c(NC(=O)OC(C)c4cccc(N(C)C)c4)cc3C)c2cc1OC` (stereo not drawn) [Example 201, 1-[3-(Dimethylamino)phenyl]ethyl N-{4-[(6,7-dimethoxy-4-quinolyl)oxy]-2,5-dimethylphenyl}-carbamate]: more than 100 nM. Usually inhibition stands for the share of the control response that was lost under treatment. Regarding `COc1ccc(C(=O)NC(=S)Nc2ccc(Oc3ccnc4cc(OC)c(OC)cc34)cc2)c(OC)c1` [Example 1119, N-(2,4-Dimethoxybenzoyl)-N′-{4-[(6,7-dimethoxy-4-quinolyl)oxy]phenyl}thiourea], the inhibition at 1 µM in test [2] (setting [3]) stood at 27%.

With `COc1cc2nccc(Oc3ccc(NC(=S)NC(=O)c4ccc(Cl)c(Cl)c4)cc3)c2cc1OC` [Example 1120], the IC50 in test [2] was 778 nM. Still for that read-out and setting: next, `COc1cc2nccc(Oc3ccc(NC(=S)NC(=O)c4ccc(F)cc4F)c(F)c3)c2cc1OC` [Example 1121, N-(2,4-Difluorobenzoyl)-N′-{4-[(6,7-dimethoxy-4-quinolyl)oxy]-2-fluorophenyl}thiourea]: less than 30 nM; `COc1cc2nccc(Oc3ccc(NC(=S)NC(=O)CCc4ccccc4C)cc3F)c2cc1OC` [Example 1134, N-{4-[(6,7-Dimethoxy-4-quinolyl)oxy]-3-fluorophenyl}-N′-[3-(2-methylphenyl)propanoyl]thiourea]: 169 nM. Consider `COc1cc2nccc(Oc3ccc(NC(=S)NC(=O)c4ccc5c(c4)OCO5)cc3F)c2cc1OC` [Example 1145, N-(1,3-Benzodioxol-5-ylcarbonyl)-N′-{4-[(6,7-dimethoxy-4-quinolyl)oxy]-3-fluorophenyl}thiourea], for which the IC50 in test [2] is 548 nM. `COc1cc2nccc(Oc3ccc(NC(=S)NC(=O)Cc4ccccc4)c(C)c3C)c2cc1OC` [Example 1206, N-{4-[(6,7-Dimethoxy-4-quinolyl)oxy]-2,3-dimethylphenyl}-N′-(2-phenylacetyl)thiourea]: the “c-kit inhibition (%) at 1000 nM” value in test [2] (figure in parentheses in −( ), at 1000 nM, 1 µM) is given as “−(27) %”. Consider `COc1cc2ncnc(Oc3ccc(NC(=S)NC(=O)c4ccc(Cl)cc4Cl)cc3)c2cc1OC` [Example 1207, N-(2,4-Dichlorobenzoyl)-N′-{4-[(6,7-dimethoxy-4-quinazolinyl)oxy]phenyl}thiourea], for which, in test [2] (setting [3]), the inhibition at 1 µM was found to be 16%. On the same count and under the same terms, in the case of `COc1cc2nccc(Oc3ccc(NC(=S)NC(=O)c4ccc(F)cc4F)cc3Cl)c2cc1OC` [Example 1208, N-{3-Chloro-4-[(6,7-dimethoxy-4-quinolyl)oxy]phenyl}-N′-(2,4-difluorobenzoyl)thiourea] it was 22%.
